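1) Cells in 96-well plates. 2) Compound, 48 h, 5 concentrations. 3) Linear interpolation between surrounding doses. 4) Unreached endpoint = highest concentration. The concentration for 50% growth inhibition is given as GI50.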 Active and inactive are the calls of the source. Cut-off read from the data, not from the text of the source: active = GI50 up to about 1.1 µM and inactive = higher.
Legend:
Assay in all cases: inhibition of tumour cell growth, NCI panel, 48 h
NCI-H23 = test system: NCI-H23
SK-MEL-2 = test system: SK-MEL-2
K562 = test system: K562
SK-MEL-5 = test system: SK-MEL-5
SR = test system: SR
SNB-78 = test system: SNB-78
ACHN = test system: ACHN
CCRF-CEM = test system: CCRF-CEM
EKVX = test system: EKVX
HT-29 = test system: HT-29
IGROV-1 = test system: IGROV-1
U-251 = test system: U-251
RPMI-8226 = test system: RPMI-8226
M14 = test system: M14
MDA-MB-231 = test system: MDA-MB-231
Hs-578T = test system: Hs-578T
BT-549 = test system: BT-549
MDA-MB-435 = test system: MDA-MB-435
PC-3 = test system: PC-3
MDA-N = test system: MDA-N

Structure (SMILES)	GI50 (NCI-H23)	GI50 (SK-MEL-2)	GI50 (K562)	GI50 (SK-MEL-5)	GI50 (SR)	GI50 (SNB-78)	GI50 (ACHN)	GI50 (CCRF-CEM)	GI50 (EKVX)	GI50 (HT-29)	GI50 (IGROV-1)	GI50 (U-251)	GI50 (RPMI-8226)	GI50 (M14)	GI50 (MDA-MB-231)	GI50 (Hs-578T)	GI50 (BT-549)	GI50 (MDA-MB-435)	GI50 (PC-3)	GI50 (MDA-N)
Cc1c2n(c(=O)[nH]c1=O)C1OC(CO)C(O2)C1N=[N+]=[N-] (stereo not drawn)	> 100 µM (inactive)	> 100 µM (inactive)	> 100 µM (inactive)	> 100 µM (inactive)	> 100 µM (inactive)	> 100 µM (inactive)	> 100 µM (inactive)	> 100 µM (inactive)	> 100 µM (inactive)	> 100 µM (inactive)	> 100 µM (inactive)	> 100 µM (inactive)	> 100 µM (inactive)	–	–	–	–	–	–	–
COc1ccc(-c2cnoc2-c2ccc(OC)c(OC)c2)cc1OC	1.24 µM (inactive)	1.08 µM (active)	0.445 µM (active)	0.908 µM (active)	0.318 µM (active)	7.62 µM (inactive)	4.68 µM (inactive)	1.73 µM (inactive)	1.31 µM (inactive)	1.27 µM (inactive)	1.29 µM (inactive)	2.34 µM (inactive)	1.54 µM (inactive)	0.851 µM (active)	–	–	–	–	–	–
COC(=O)c1c(C(=O)OC)c2cc(C(=O)c3ccccc3)ccn2c1Cl	23.1 µM (inactive)	48.4 µM (inactive)	29 µM (inactive)	16.2 µM (inactive)	15.4 µM (inactive)	50.9 µM (inactive)	43.8 µM (inactive)	29.7 µM (inactive)	31 µM (inactive)	47.1 µM (inactive)	53.1 µM (inactive)	44.2 µM (inactive)	16.3 µM (inactive)	34 µM (inactive)	–	–	–	–	–	–
O=C1/C(=C/c2ccccc2)CN(C(=O)C(F)(F)F)C/C1=C\c1ccccc1	1.83 µM (inactive)	7.98 µM (inactive)	0.467 µM (active)	1.71 µM (inactive)	2.02 µM (inactive)	2.2 µM (inactive)	2.24 µM (inactive)	1.54 µM (inactive)	> 10 µM (inactive)	1.3 µM (inactive)	2.29 µM (inactive)	1.57 µM (inactive)	0.165 µM (active)	1.61 µM (inactive)	–	–	–	–	–	–
O=[N+]([O-])c1ccc(Sc2c3ccccc3nc3ccccc23)cc1	> 100 µM (inactive)	> 100 µM (inactive)	> 100 µM (inactive)	> 100 µM (inactive)	–	> 100 µM (inactive)	> 100 µM (inactive)	> 100 µM (inactive)	> 100 µM (inactive)	> 100 µM (inactive)	> 100 µM (inactive)	> 100 µM (inactive)	> 100 µM (inactive)	> 100 µM (inactive)	–	–	–	–	–	–
O=C(/C=C(\O)C(=O)O)/C=C(\O)c1ccc(Cl)cc1	> 100 µM (inactive)	> 100 µM (inactive)	> 100 µM (inactive)	> 100 µM (inactive)	> 100 µM (inactive)	> 100 µM (inactive)	> 100 µM (inactive)	> 100 µM (inactive)	> 100 µM (inactive)	> 100 µM (inactive)	> 100 µM (inactive)	> 100 µM (inactive)	> 100 µM (inactive)	> 100 µM (inactive)	–	–	–	–	–	–
Cc1cnc2c(C)ccc([N+](=O)[O-])c2c1NCCCN(C)C	31.5 µM (inactive)	> 100 µM (inactive)	> 100 µM (inactive)	–	> 100 µM (inactive)	43.7 µM (inactive)	> 100 µM (inactive)	> 100 µM (inactive)	> 100 µM (inactive)	> 100 µM (inactive)	> 100 µM (inactive)	> 100 µM (inactive)	> 100 µM (inactive)	> 100 µM (inactive)	–	–	–	–	–	–
COC(=O)C(=O)C(C(=O)C=C(C)C)C(=O)C(=O)Nc1cc(C(F)(F)F)ccc1Cl (stereo not drawn)	> 100 µM (inactive)	> 100 µM (inactive)	42.9 µM (inactive)	> 100 µM (inactive)	17.7 µM (inactive)	> 100 µM (inactive)	> 100 µM (inactive)	21.3 µM (inactive)	> 100 µM (inactive)	> 100 µM (inactive)	> 100 µM (inactive)	> 100 µM (inactive)	24.4 µM (inactive)	> 100 µM (inactive)	–	–	–	–	–	–
O=C1c2c(O)cccc2C(C(=O)CCCCCC(=O)C2c3cccc(O)c3C(=O)c3c(O)cccc32)c2cccc(O)c21	0.692 µM (active)	1.03 µM (active)	0.966 µM (active)	0.555 µM (active)	1.79 µM (inactive)	0.681 µM (active)	2.72 µM (inactive)	1.36 µM (inactive)	0.957 µM (active)	4.49 µM (inactive)	1.14 µM (inactive)	0.766 µM (active)	0.741 µM (active)	2.45 µM (inactive)	–	–	–	–	–	–
O=C1c2ccccc2C(=O)C1(Cl)C1(S(=O)(=O)O)c2ccccc2-c2ccccc21	> 100 µM (inactive)	–	> 100 µM (inactive)	> 100 µM (inactive)	> 100 µM (inactive)	> 100 µM (inactive)	> 100 µM (inactive)	> 100 µM (inactive)	–	> 100 µM (inactive)	> 100 µM (inactive)	> 100 µM (inactive)	> 100 µM (inactive)	> 100 µM (inactive)	–	–	–	–	–	–
CC(=O)NC1=C(NCCN(C)C)C(=O)c2ccccc2C1=O	11.5 µM (inactive)	15.3 µM (inactive)	12.4 µM (inactive)	7.21 µM (inactive)	41.3 µM (inactive)	18.9 µM (inactive)	16.9 µM (inactive)	15.4 µM (inactive)	32.9 µM (inactive)	13.8 µM (inactive)	14.7 µM (inactive)	10.3 µM (inactive)	–	18.4 µM (inactive)	–	–	–	–	–	–
CCN(CC)C(=O)CNC(=O)OC(C)(C)C	> 100 µM (inactive)	> 100 µM (inactive)	> 100 µM (inactive)	> 100 µM (inactive)	–	> 100 µM (inactive)	> 100 µM (inactive)	> 100 µM (inactive)	> 100 µM (inactive)	> 100 µM (inactive)	> 100 µM (inactive)	> 100 µM (inactive)	> 100 µM (inactive)	> 100 µM (inactive)	–	–	–	–	–	–
C=CC1C(OC2OC(CO)C(O)C(O)C2O)OC=C(C(=O)OC)C1CC=O (stereo not drawn)	> 100 µM (inactive)	> 100 µM (inactive)	> 100 µM (inactive)	> 100 µM (inactive)	> 100 µM (inactive)	> 100 µM (inactive)	> 100 µM (inactive)	–	> 100 µM (inactive)	–	> 100 µM (inactive)	> 100 µM (inactive)	> 100 µM (inactive)	> 100 µM (inactive)	–	–	–	–	–	–
Cc1nc2c(o1)/C(=N\c1ccccc1)c1ccccc1C2=O	1.9 µM (inactive)	4.86 µM (inactive)	5.7 µM (inactive)	2.56 µM (inactive)	–	6.81 µM (inactive)	7.16 µM (inactive)	10.9 µM (inactive)	14.2 µM (inactive)	18.7 µM (inactive)	17.9 µM (inactive)	3.61 µM (inactive)	5.66 µM (inactive)	9.64 µM (inactive)	–	–	–	–	–	–
Cc1cc(N(CCC#N)CCC#N)ccc1/N=N/c1ccc(Br)cc1	17.5 µM (inactive)	15.1 µM (inactive)	23.8 µM (inactive)	12.3 µM (inactive)	–	17.7 µM (inactive)	9.12 µM (inactive)	> 31.6 µM (inactive)	26.8 µM (inactive)	> 100 µM (inactive)	10.9 µM (inactive)	19.5 µM (inactive)	> 45.9 µM (inactive)	9.02 µM (inactive)	–	–	–	–	–	–
COc1ccc(C(=O)O)c2c(=O)c3ccccc3[nH]c12	> 100 µM (inactive)	> 100 µM (inactive)	> 100 µM (inactive)	–	> 100 µM (inactive)	> 100 µM (inactive)	> 100 µM (inactive)	> 31.6 µM (inactive)	> 100 µM (inactive)	> 100 µM (inactive)	> 100 µM (inactive)	> 100 µM (inactive)	> 100 µM (inactive)	> 31.6 µM (inactive)	–	–	–	–	–	–
CC(CN(C)C)C(=O)c1ccccc1 (stereo not drawn)	24.9 µM (inactive)	22.7 µM (inactive)	5.02 µM (inactive)	> 82.4 µM (inactive)	19.6 µM (inactive)	31 µM (inactive)	24.8 µM (inactive)	3.78 µM (inactive)	> 50.7 µM (inactive)	20 µM (inactive)	> 100 µM (inactive)	> 100 µM (inactive)	0.94 µM (active)	24.7 µM (inactive)	–	–	–	–	–	–
CC1=CCC(O)C=CC(C)C(O)C(C)C=C(C)C(=O)c2c(O)c(C)cc3c2C(=O)C(N)=C(NC(=O)/C=C\C=C/C=CC(C)C(O)CC1=O)C3=O (stereo not drawn)	> 100 µM (inactive)	> 100 µM (inactive)	> 100 µM (inactive)	> 100 µM (inactive)	–	17.3 µM (inactive)	> 100 µM (inactive)	67.6 µM (inactive)	> 100 µM (inactive)	> 100 µM (inactive)	> 100 µM (inactive)	> 100 µM (inactive)	> 100 µM (inactive)	> 100 µM (inactive)	–	–	–	–	–	–
CC(=O)c1cccc(NC(=O)C(=O)Nn2c(N)nnc2N)c1	> 100 µM (inactive)	> 100 µM (inactive)	> 100 µM (inactive)	> 100 µM (inactive)	> 100 µM (inactive)	> 100 µM (inactive)	> 100 µM (inactive)	> 100 µM (inactive)	> 100 µM (inactive)	> 100 µM (inactive)	> 100 µM (inactive)	> 100 µM (inactive)	> 100 µM (inactive)	> 100 µM (inactive)	–	–	–	–	–	–
COc1ccc2nc3cc(Cl)ccc3c(NCCCN(CCCl)CCCl)c2c1	0.0116 µM (active)	0.14 µM (active)	0.0123 µM (active)	0.034 µM (active)	< 0.01 µM (active)	0.0845 µM (active)	< 0.01 µM (active)	< 0.01 µM (active)	0.11 µM (active)	0.0119 µM (active)	0.0324 µM (active)	0.0185 µM (active)	< 0.01 µM (active)	0.0408 µM (active)	31.6 nM (active)	32.8 nM (active)	129 nM (active)	32.3 nM (active)	< 10 nM (active)	31.8 nM (active)
